In PubChem BioAssay AID624285 (Broad Institute, 2012) one finds AC50 data, which are given here for 57 compounds.

Broadly, the AC50 is the midpoint of the concentration-response curve, whichever way the signal moves.

Activity calls are given as the source filed them.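 Rule for the calls: active = signal-decreasing dose-response curve whose fitted half-maximal concentration is at or below twice the highest valid tested dose; inconclusive = flat fit at 30 to 70% signal loss, or poor fit; inactive = the rest.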

This assay has as its system NIH3T3/HeLa viability, CellTiter-Glo ATP luminescence, 24 h. Briefly: cell viability loss after compound exposure – 24 h, luminescence, cherry-picked samples, cytotoxicity control for PDI inhibitor project, dose response (AID 624285).
In the case of `CN(C)CCCN(C(=O)c1ccc(S(=O)(=O)N2CCc3ccccc32)cc1)c1nc2c(Cl)cccc2s1`, the half-maximal activity concentration (AC50) was 16.5 µM.

`CCOc1cc(N2CCOCC2)c(OCC)cc1NC(=O)COC(=O)[C@H](Cc1c[nH]c2ccccc12)NC(C)=O`: the AC50 is > 70 µM (inactive).

Take `Cc1noc(C)c1S(=O)(=O)Nc1ccc2c(c1)CC(=O)N([C@@H](C)CO)C[C@@H](C)[C@@H](CN(C)S(=O)(=O)c1ccc(F)cc1)O2`: the AC50 is > 70 µM (inactive).

Take `COc1ccc(OCCN2CCC(C(=O)NC(c3ccsc3)c3ccccc3C)CC2)cc1` (configuration not stated): the AC50 is > 70 µM (inactive).

Take `C=CC[C@H](CC(=O)N(CCO)Cc1ccccc1)C(=O)N[C@H](COC(=O)[C@@H](CC=C)Cc1ccc(F)cc1)Cc1c[nH]c2ccccc12`: the AC50 was 30.8 µM.

For `C[C@]12CC[C@@H]3c4ccc(O)cc4C(=O)C[C@H]3[C@@H]1CC[C@@H]2O`, the AC50 is > 70 µM (inactive).

On to `CCOC(=O)c1c(CNCCN(CC)CC)n(C)c2cc(Br)c(OC)cc12`, for which the AC50 is > 70 µM (inactive).

As to `CC1(c2ccc3ccccc3c2)NC(=O)N(CC(=O)Nc2cccc(S(=O)(=O)N3CCOCC3)c2)C1=O` (configuration not stated), the AC50 was > 70 µM (inactive).

Turning to `Cc1cccn2c(CN(C)C3CCCc4ccccc43)c(C(=O)N3CCOCC3)nc12` (configuration not stated), the AC50 was > 70 µM (inactive).

Take `CC[C@]12c3[nH]c4cc(-c5ccco5)ccc4c3CCN1C(=O)[C@@H](CC(=O)NCC13CC4CC(CC(C4)C1)C3)C[C@@H]2C(=O)N1CCN(C(=O)c2ccco2)CC1`: the AC50 is > 70 µM (inactive).

Regarding `CCOC(=O)C1=C(c2ccccc2)N=c2s/c(=C\c3cccc(O)c3)c(=O)n2C1c1cccs1` (configuration not stated), the AC50 is 23 µM.

With `CCOC(=O)C1(CCOc2ccccc2)CCN(Cc2cccc(O)c2)CC1`, the AC50 is > 70 µM (inactive).

In the case of `CCOC(=O)c1c(CN2CCOCC2)n(-c2ccccc2)c2ccc(O)cc12`, the AC50 is > 70 µM (inactive).

Regarding `COCCN(CC(=O)Nc1ccccc1C(F)(F)F)C(=O)/C=C/c1cc(Cl)c2c(c1)OCCO2`, the AC50 is > 70 µM (inactive).

Regarding `Cc1ccc(N(Cc2ccccc2)C(=O)c2cccc(S(=O)(=O)N3CC(C)OC(C)C3)c2)cc1` (configuration not stated), the AC50 was > 70 µM (inactive).

Regarding `C[C@@H]1CN([C@@H](C)CO)C(=O)Cc2cc(NC(=O)Nc3ccccc3)ccc2O[C@@H]1CN(C)Cc1ccccc1`, the AC50 is > 60 µM (inactive).

In the case of `C[C@H]1CN([C@@H](C)CO)C(=O)Cc2cc(NC(=O)Nc3ccccc3)ccc2O[C@@H]1CN(C)Cc1ccccc1`, the AC50 is 37.9 µM.

On to `CCN1CCN(Cc2ccc(NC(=O)c3cc(NC(=O)c4cc(-c5ccc(OC)cc5)n[nH]4)cc(OC)c3)cc2C(F)(F)F)CC1`, for which the AC50 is 6.45 µM.

As to `O=C(c1ccc(S(=O)(=O)N2CCCCC2)cc1)N1CCN(Cc2ccc3c(c2)OCO3)CC1`, the AC50 is > 70 µM (inactive).

As to `O=C(COC(=O)c1ccccc1NC(=O)c1ccco1)NCCC1=CCCCC1`, the AC50 is > 70 µM (inactive).

For `Cc1c(O)ccc2c(CN3CCN(C/C=C/c4ccccc4)CC3)cc(=O)oc12`, the AC50 is > 70 µM (inactive).

For `Nc1ccc(C(=O)NN2C(=O)[C@H](Cl)C2c2ccc(Cl)cc2)cc1` (some centres not stated), the concentration at half-maximal activity (AC50) is 6.04 µM.

As to `Cc1noc(C)c1-c1ccc(C(=O)NCc2ccc(Cl)cc2)c2occc12`, the AC50 is > 70 µM (inactive).

Consider `CCN1C[C@]2(COC(=O)c3ccccc3N)CC[C@H](OC)C34[C@@H]5C[C@H]6[C@H](OC)[C@@H]5[C@](O)(C[C@@H]6OC)[C@@](O)([C@H]13)[C@@H](OC)[C@@H]42`, for which the AC50 is > 70 µM (inactive).

As to `O=C(NCc1ccccc1CN1CCCC1)c1cc2ccccc2o1`, the AC50 was > 70 µM (inactive).

As to `Cc1ccc(NC(=O)CSC(C)C(=O)OCc2cc(=O)oc3cc(O)ccc23)cc1` (configuration not stated), the AC50 is > 70 µM (inactive).

For `O=C(CCC1CCCCC1)NCCN1C2=NC[C@H](Cc3ccc(O)cc3)N2C[C@H]1Cc1ccc(O)cc1`, the AC50 is > 70 µM (inactive).

As for `O=C(CCc1nc(-c2ccccc2F)no1)Nc1ccc(Oc2ccccc2)cc1`, the AC50 is > 70 µM (inactive).

Turning to `CCOC(=O)c1c(CN2CCN(C)CC2)n(-c2ccccc2)c2cc(Br)c(O)cc12`, the half-maximal activity concentration (AC50) is 23.9 µM.

For the compound `C[C@@H]1CN([C@@H](C)CO)C(=O)c2cc(NC(=O)Cc3cn(C)c4ccccc34)ccc2O[C@@H]1CN(C)S(=O)(=O)c1ccc(F)cc1`, the AC50 is > 70 µM (inactive).

Regarding `C[C@@H]1CN([C@H](C)CO)C(=O)c2cccc(NS(C)(=O)=O)c2O[C@H]1CN(C)Cc1ccc(Oc2ccccc2)cc1`, the AC50 was > 70 µM (inactive).

Turning to `CN(c1ccccc1)S(=O)(=O)c1cc(C(=O)N2CCN(c3ncccn3)CC2)ccc1Cl`, the AC50 is > 70 µM (inactive).

Regarding `CN1CCN(Cc2nc3ccccc3c(=O)n2Cc2nc(-c3ccc4ccccc4c3)cs2)CC1`, the half-maximal activity concentration (AC50) was 7.27 µM.

`CC(=O)Oc1ccccc1C(=O)C=Cc1cccc([N+](=O)[O-])c1`: the AC50 is 5.89 µM.

In the case of `O=C(Nc1ccccc1N1CCCC1)c1cc(Cl)ccc1Cl`, the AC50 was > 70 µM (inactive).

On to `CC(=O)OC1CCC2C3CCC4=C(CC(F)C(=O)C4)C3CCC12C` (configuration not stated), for which the AC50 was > 70 µM (inactive).

Take `COc1ccc(C[C@@H]2OC3(C=CC(=O)C=C3)O[C@H]2Cc2ccc(OC)cc2)cc1`: the AC50 is 1.69 µM.

With `CN(C)CCCN(C(=O)c1ccc(S(=O)(=O)N2CCCc3ccccc32)cc1)c1nc2ccc(F)cc2s1`, the AC50 is 18.2 µM.

`CCOC(=O)c1c(CN2CCN(C)CC2)n(C)c2cc(Br)c(OC)cc12`: the AC50 was 22.2 µM.

For the compound `NC(Cc1ccc(C(F)(F)F)cc1)c1csc(Nc2ccc(C(=O)NCCCO)cn2)n1` (configuration not stated), the AC50 was 35.1 µM.

`Cc1ccc2c(c1)Oc1ccc(NC(=O)CCl)cc1C(=O)N2`: the AC50 is 8.51 µM.

For the compound `CC[C@]12c3[nH]c4cc(-c5ccco5)ccc4c3CCN1C(=O)[C@@H](CC(=O)NCc1ccco1)C[C@@H]2C(=O)N1CCN(C(=O)c2ccco2)CC1`, the AC50 is > 70 µM (inactive).

As for `C[C@H]1CN([C@@H](C)CO)C(=O)Cc2cc(NC(=O)Nc3ccccc3)ccc2O[C@H]1CN(C)Cc1ccccc1`, the AC50 is > 70 µM (inactive).

In the case of `O=C1N[C@@H](Cc2c[nH]c3ccccc23)COC(=O)[C@@H](Cc2ccc(F)cc2)C/C=C\C[C@H]1CC(=O)N(CCO)Cc1ccccc1`, the AC50 is 30.2 µM.

For the compound `Cc1ccc(C)c(N2CCN(S(=O)(=O)c3ccc4c(c3)OCCO4)CC2)c1`, the AC50 was > 70 µM (inactive).

`COC1/C=C/C=C(\C)Cc2cc(O)c(Cl)c(c2)N(C)C(=O)CC(OC(=O)C(C)C)C2(C)OC2C(C)C2CC1(O)NC(=O)O2` (configuration not stated): the AC50 is > 70 µM (inactive).

For `C[C@]12CC[C@H]3C(=CCc4cc(O)ccc43)[C@@H]1CCC2=O`, the AC50 is > 70 µM (inactive).

With `Cc1ccc(S(=O)(=O)N(C)c2ccc(OC(=O)COc3ccccc3)cc2)cc1`, the AC50 is > 70 µM (inactive).

Take `CC[C@]12c3[nH]c4cc(-c5ccco5)ccc4c3CCN1C(=O)[C@@H](CC(=O)NCc1ccc(OC)c(OC)c1)C[C@@H]2C(=O)N1CCN(C(=O)c2ccco2)CC1`: the AC50 was > 70 µM (inactive).

For `COc1ccc(C[C@@H]2CN3C(=NC[C@@H]3Cc3ccc(O)cc3)N2C[C@H](C)NC(=O)CCC2CCCCC2)cc1`, the AC50 is 18.8 µM.

For `C[C@H]1CN([C@@H](C)CO)C(=O)c2cc(NC(=O)Cc3cn(C)c4ccccc34)ccc2O[C@@H]1CN(C)S(=O)(=O)c1ccc(F)cc1`, the AC50 was > 70 µM (inactive).

On to `Cc1cc(C(=O)Cn2nnc3ccccc3c2=O)c(C)n1-c1ccccc1F`, for which the AC50 is > 70 µM (inactive).

For `CCOC(=O)Oc1c(OC)cc(C(=O)O[C@@H]2C[C@@H]3CN4CCc5c([nH]c6cc(OC)ccc56)[C@H]4C[C@@H]3[C@H](C(=O)OC)[C@H]2OC)cc1OC`, the half-maximal activity concentration (AC50) is 27.3 µM.

For `CCOC(=O)C1(CCOc2ccccc2)CCN(Cc2ccc(O)cc2)CC1`, the AC50 is > 70 µM (inactive).

`CCOC(=O)c1c(CN(C)C)n(-c2ccc(C)cc2)c2cc(Br)c(O)cc12`: the AC50 was > 70 µM (inactive).

In the case of `COc1ccc(Oc2ccc(/C=C/C(=O)c3ccc(O)cc3)cc2[N+](=O)[O-])cc1`, the AC50 was 12.4 µM.

`CN1CCN(CCOC2c3ccccc3CSc3ccc(Cl)cc32)CC1` (configuration not stated): the AC50 was 30.5 µM.
